What follows are molecules tested against T1, Human glycogen phosphorylase a (Homo sapiens, UniProt P06737) (assay: Glycogen phosphorylase a activity test). Conditions: 10 μM concentration of the test substance; GPa measured in the reverse direction, in vitro.
T1 sequence (P06737 1-847): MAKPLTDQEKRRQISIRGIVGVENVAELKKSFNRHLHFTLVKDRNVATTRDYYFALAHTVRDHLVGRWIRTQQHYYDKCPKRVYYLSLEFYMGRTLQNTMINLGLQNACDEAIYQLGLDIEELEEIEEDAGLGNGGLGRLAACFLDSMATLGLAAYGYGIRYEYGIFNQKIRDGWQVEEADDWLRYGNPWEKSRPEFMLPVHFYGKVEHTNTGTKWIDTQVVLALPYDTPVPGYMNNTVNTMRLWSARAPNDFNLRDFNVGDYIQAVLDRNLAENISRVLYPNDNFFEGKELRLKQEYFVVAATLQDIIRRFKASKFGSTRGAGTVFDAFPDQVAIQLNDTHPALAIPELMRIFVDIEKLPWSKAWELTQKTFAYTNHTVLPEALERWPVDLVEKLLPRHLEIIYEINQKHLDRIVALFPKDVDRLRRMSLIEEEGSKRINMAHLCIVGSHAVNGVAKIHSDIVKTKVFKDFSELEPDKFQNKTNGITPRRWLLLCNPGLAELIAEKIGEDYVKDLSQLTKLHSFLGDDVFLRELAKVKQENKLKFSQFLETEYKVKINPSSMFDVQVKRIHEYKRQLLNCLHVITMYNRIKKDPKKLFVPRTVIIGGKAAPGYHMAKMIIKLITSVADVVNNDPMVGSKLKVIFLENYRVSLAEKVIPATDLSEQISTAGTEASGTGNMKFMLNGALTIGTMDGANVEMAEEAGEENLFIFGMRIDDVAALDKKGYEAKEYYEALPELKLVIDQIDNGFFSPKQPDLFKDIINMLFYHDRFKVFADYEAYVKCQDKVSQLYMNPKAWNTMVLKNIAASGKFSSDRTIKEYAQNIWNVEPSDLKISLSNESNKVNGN
Format: biochemical
Procedure: Glycogen Phosphorylase a Activity Test
The effect of compounds on the activity of the active form of glycogen phosphorylase (GPa) was measured in the reverse direction by monitoring the synthesis of glycogen from glucose 1-phosphate by determining the release of inorganic phosphate. All the reactions were carried out as duplicate determinations in 96-well microtiter plates (Half Area Plates, Costar No. 3696), with the change in absorption due to the formation of the reaction product being measured, at the wavelength specified below, in a Multiscan Ascent Elisa Reader (Lab Systems, Finland). In order to measure the enzymic activity of GPa in the reverse direction, the conversion of glucose 1-phosphate into glycogen and inorganic phosphate was measured in accordance with the general method of Engers et al. (Engers HD, Shechosky S, Madsen NB, Can J Biochem 1970 July;48(7): 746–754) but with the following modifications: Human glycogen phosphorylase a (for example containing 0.76 mg of protein/ml (Aventis Pharma Deutschland GmbH), dissolved in buffer solution E (25 mM β-glycerophosphate, pH 7.0, 1 mM EDTA and 1 mM dithiothreitol), was diluted with buffer T (50 mM Hepes, pH 7.0, 100 mM KCl, 2.5 mM EDTA, 2.5 mM MgCl2.6H2O), and addition of 5 mg of glycogen/ml, to a concentration of 10 μg of protein/ml. Test substances were prepared as a 10 mM solution in DMSO and diluted down to 50 μM with buffer solution T. 10 μl of 37.5 mM glucose, dissolved in buffer solution T and 5 mg/ml of glycogen, and also 10 μl of a solution of human glycogen phosphorylase a (10 μg of protein/ml) and 20 μl of glucose 1-phosphate, 2.5 mM, were added to […] of the solution. The basal value of the activity of the glycogen phosphorylase a in the absence of test substance was determined by adding 10 μl of buffer solution T (0.1% DMSO). The mixture was incubated at room temperature for 40 minutes and the inorganic phosphate which was released was measured using the general method of Drueckes et al. (Drueckes P, Schinzel R, Palm D, Anal Biochem […] Sep. 1;230(10):173–177) but with the following modifications: 50 μl of a stop solution of 7.3 mM ammonium molybdate, 10.9 mM zinc acetate, 3.6% ascorbic acid, 0.9% SDS are added to 50 μl of the enzyme mixture. After 60 minutes of incubation at 45° C., the absorption was measured at 820 nm. In order to determine the background absorption, the stop solution was added immediately after adding the glucose 1-phosphate solution in a separate assay. This test was carried out using a 10 μM concentration of the test substance in order to determine the respective inhibition of glycogen phosphorylase a by the test substance in vitro.

Work on `COc1ccc(C(=O)O)cc1NC(=O)NC(=O)c1ccc(Cl)cc1Cl` [Example 1, 3-[3-(2,4-Dichlorobenzoyl)ureido]-4-methoxybenzoic acid] yielded an inhibition at 10 µM of 95%.

Compared with `COc1ccc(C(=O)O)cc1NC(=O)NC(=O)c1ccccc1Cl` [Example 2], `COc1ccc(C(=O)O)cc1NC(=O)NC(=O)c1ccccc1C` [Example 8] is higher in “% inhibition at 10 μM” value: 75% for the first, 77% for the second.

Compared with `O=C(NC(=O)c1ccc(Cl)cc1Cl)Nc1cc(C(=O)O)ccc1O` [Example 3], `O=C(NC(=O)c1ccc(Cl)cc1Cl)Nc1cc(C(=O)O)ccc1F` [Example 4] is higher in “% inhibition at 10 μM” value: 74% for the first, 75% for the second.

First: O=C(NC(=O)c1cc(Cl)ccc1Cl)Nc1cc(C(=O)O)ccc1Cl [Example 6]
Second: O=C(NC(=O)c1ccc(Cl)cc1Cl)Nc1cc(C(=O)O)ccc1Cl [Example 12]
The “% inhibition at 10 μM” value of the first is lower: 57% for the first, 83% for the second.

First: NC(CO)(CO)CO.O=C(NC(=O)c1cc(Cl)ccc1Cl)Nc1cc(C(=O)O)ccc1Cl [Example 7]
Second: NC(CO)(CO)CO.O=C(NC(=O)c1ccc(Cl)cc1Cl)Nc1cc(C(=O)O)ccc1Oc1ccccc1 [Example 24]
The “% inhibition at 10 μM” value of the first is lower: 54% for the first, 65% for the second.

Compared with `COc1ccc(C(=O)O)cc1NC(=O)NC(=O)c1cc(Cl)ccc1Cl` [Example 9], `COc1ccc(C(=O)O)cc1NC(=O)NC(=O)c1ccc(Cl)cc1F` [Example 16] is lower in “% inhibition at 10 μM” value: 81% for the first, 48% for the second.

Compared with `COc1ccc(C(=O)O)cc1NC(=O)NC(=O)c1ccc(Cl)c(Cl)c1` [Example 10], `COc1ccc(C(=O)O)cc1NC(=O)NC(=O)c1ccc(C)cc1C` [Example 14] is higher in “% inhibition at 10 μM” value: 41% for the first, 57% for the second.

Compared with `O=C(NC(=O)c1ccccc1Cl)Nc1cc(C(=O)O)ccc1Cl` [Example 11], `O=C(NC(=O)c1ccc(Cl)cc1F)Nc1cc(C(=O)O)ccc1Cl` [Example 15] is higher in “% inhibition at 10 μM” value: 49% for the first, 61% for the second.

Compared with `CCOc1ccc(C(=O)O)cc1NC(=O)NC(=O)c1ccc(Cl)cc1Cl` [Example 13], `CCCOc1ccc(C(=O)O)cc1NC(=O)NC(=O)c1ccc(Cl)cc1Cl` [Example 20] is lower in “% inhibition at 10 μM” value: 86% for the first, 62% for the second.

First: O=C(NC(=O)c1ccc(F)cc1F)Nc1cc(C(=O)O)ccc1Cl [Example 17]
Second: COc1ccc(C(=O)O)cc1NC(=O)NC(=O)c1ccc(F)cc1F [Example 18]
The “% inhibition at 10 μM” value of the first is lower: 52% for the first, 69% for the second.

Compared with `O=C(NC(=O)c1ccc(Cl)cc1Cl)Nc1cc(C(=O)O)ccc1OCCO` [Example 19], `CCCCOc1ccc(C(=O)O)cc1NC(=O)NC(=O)c1ccc(Cl)cc1Cl` [Example 21] is lower in “% inhibition at 10 μM” value: 90% for the first, 64% for the second.

Going from `COCCOc1ccc(C(=O)O)cc1NC(=O)NC(=O)c1ccc(Cl)cc1Cl` [Example 22] to `O=C(NC(=O)c1ccc(Cl)cc1Cl)Nc1cc(C(=O)O)ccc1C(F)(F)F` [Example 26], the “% inhibition at 10 μM” value falls from 72% to 44%.

Going from `O=C(NC(=O)c1ccc(Cl)cc1Cl)Nc1cc(C(=O)O)ccc1Oc1ccccc1` [Example 23] to `O=C(NC(=O)c1ccc(F)cc1Cl)Nc1cc(C(=O)O)ccc1C(F)(F)F` [Example 25], the “% inhibition at 10 μM” value falls from 55% to 49%.
